Results published in ChEMBL document CHEMBL1201862, “PubChem BioAssay data set” (2004).
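Values below derive from 48-hour exposures of cells grown in 96-well plates, with endpoints linearly interpolated between the two concentrations bracketing the appropriate inhibition level. GI50: concentration for 50% inhibition of growth.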 Activity calls are given as the source filed them. Rule as the data show it: active = GI50 up to about 1.1 µM and inactive = higher.

Legend:
Assay in all cases: NCI anticancer screen, dose series, 48 h
LXFL 529 = tested on: LXFL 529
SNB-75 = tested on: SNB-75
OVCAR-4 = tested on: OVCAR-4
U-251 = tested on: U-251
M14 = tested on: M14
SW-620 = tested on: SW-620
SF-539 = tested on: SF-539
SF-268 = tested on: SF-268
A549 = tested on: A549
CAKI-1 = tested on: CAKI-1
KM12 = tested on: KM12
SNB-19 = tested on: SNB-19
SK-MEL-28 = tested on: SK-MEL-28
UACC-62 = tested on: UACC-62
HL-60 = tested on: HL-60
IGROV-1 = tested on: IGROV-1
HT-29 = tested on: HT-29
UACC-257 = tested on: UACC-257
EKVX = tested on: EKVX
MDA-MB-231 = tested on: MDA-MB-231

| SMILES | GI50 (LXFL 529) | GI50 (SNB-75) | GI50 (OVCAR-4) | GI50 (U-251) | GI50 (M14) | GI50 (SW-620) | GI50 (SF-539) | GI50 (SF-268) | GI50 (A549) | GI50 (CAKI-1) | GI50 (KM12) | GI50 (SNB-19) | GI50 (SK-MEL-28) | GI50 (UACC-62) | GI50 (HL-60) | GI50 (IGROV-1) | GI50 (HT-29) | GI50 (UACC-257) | GI50 (EKVX) | GI50 (MDA-MB-231) |
| --- | --- | --- | --- | --- | --- | --- | --- | --- | --- | --- | --- | --- | --- | --- | --- | --- | --- | --- | --- | --- |
| COc1cc2c(cc1OC)[C@H]1C(COC(=O)Nc3ccccc3)CN1CC2 (stereo partly specified) | > 100 µM (inactive) | 18.6 µM (inactive) | > 100 µM (inactive) | > 100 µM (inactive) | 53.8 µM (inactive) | > 100 µM (inactive) | > 100 µM (inactive) | > 100 µM (inactive) | > 100 µM (inactive) | > 100 µM (inactive) | > 100 µM (inactive) | > 100 µM (inactive) | > 100 µM (inactive) | > 100 µM (inactive) | > 100 µM (inactive) | > 100 µM (inactive) | 74.5 µM (inactive) |  |  |  |
| CSc1n[n+]2c(s1)SCCC2 | > 100 µM (inactive) | 42.8 µM (inactive) | > 100 µM (inactive) | > 100 µM (inactive) | > 100 µM (inactive) | 66.1 µM (inactive) | > 100 µM (inactive) | 80.2 µM (inactive) | 20.5 µM (inactive) | 31.9 µM (inactive) | 44.7 µM (inactive) | > 100 µM (inactive) | > 100 µM (inactive) | > 100 µM (inactive) | > 100 µM (inactive) | 25.8 µM (inactive) | > 100 µM (inactive) | > 100 µM (inactive) |  |  |
| CCCCCCCCCCCCCCCCCC(=O)O[C@H](COC(=O)CCCCCCCCCCC)COC(=O)CCCCCCCCCCCCCCC | > 100 µM (inactive) |  | > 100 µM (inactive) | > 100 µM (inactive) | > 100 µM (inactive) | > 100 µM (inactive) |  | > 100 µM (inactive) | > 100 µM (inactive) | > 100 µM (inactive) |  | > 100 µM (inactive) | > 100 µM (inactive) | > 100 µM (inactive) | > 100 µM (inactive) | > 100 µM (inactive) | > 100 µM (inactive) | > 100 µM (inactive) |  |  |
| O[C@]12c3ccccc3C1CCCC2N1CCOCC1 (stereo partly specified) | > 100 µM (inactive) | > 100 µM (inactive) | > 100 µM (inactive) | > 100 µM (inactive) | > 100 µM (inactive) | > 100 µM (inactive) |  | > 100 µM (inactive) | > 100 µM (inactive) |  | > 100 µM (inactive) | > 100 µM (inactive) | > 100 µM (inactive) | > 100 µM (inactive) | > 100 µM (inactive) |  | > 100 µM (inactive) | > 100 µM (inactive) | > 100 µM (inactive) |  |
| Cc1cc2oc(=O)[nH]c(=S)c2c(C)c1C | > 100 µM (inactive) | > 100 µM (inactive) | 45.2 µM (inactive) | > 100 µM (inactive) | > 100 µM (inactive) | > 100 µM (inactive) | > 100 µM (inactive) | > 100 µM (inactive) | > 100 µM (inactive) |  | > 100 µM (inactive) | > 100 µM (inactive) | > 100 µM (inactive) | > 100 µM (inactive) | > 100 µM (inactive) | > 100 µM (inactive) | > 100 µM (inactive) | > 100 µM (inactive) | 48.2 µM (inactive) |  |
| COC(=O)C(C(=O)C(=O)Nc1ccc(OC)cc1[N+](=O)[O-])c1nc2cc(C)c(C)cc2nc1O (stereo unspecified) | > 100 µM (inactive) | > 100 µM (inactive) | > 100 µM (inactive) | > 100 µM (inactive) | > 100 µM (inactive) | > 100 µM (inactive) | > 100 µM (inactive) | > 100 µM (inactive) | > 100 µM (inactive) | > 100 µM (inactive) |  | > 100 µM (inactive) | > 100 µM (inactive) | > 100 µM (inactive) | > 100 µM (inactive) | > 100 µM (inactive) | > 100 µM (inactive) | > 100 µM (inactive) | 74.6 µM (inactive) |  |
| COc1cc(C(=O)O)ccc1OS(=O)(=O)O |  | > 100 µM (inactive) | > 100 µM (inactive) | > 100 µM (inactive) | > 100 µM (inactive) | > 100 µM (inactive) | > 100 µM (inactive) | > 100 µM (inactive) | > 100 µM (inactive) | > 100 µM (inactive) | > 100 µM (inactive) | > 100 µM (inactive) | > 100 µM (inactive) | > 100 µM (inactive) | > 100 µM (inactive) | > 100 µM (inactive) | > 100 µM (inactive) | > 100 µM (inactive) | > 100 µM (inactive) | > 100 µM (inactive) |
| CC(=O)[C@]1(O)Cc2c(O)c3c(c(O)c2C(OC2OC(C)C(O)C(O)C2F)C1)C(=O)c1ccccc1C3=O (stereo partly specified) |  | 0.0664 µM (active) | 0.914 µM (active) | < 0.0159 µM (active) | 0.0951 µM (active) | 0.0796 µM (active) | < 0.0402 µM (active) | 0.084 µM (active) | 0.019 µM (active) | 0.013 µM (active) | 0.158 µM (active) | < 0.0199 µM (active) | 0.547 µM (active) | 0.0791 µM (active) | < 0.01 µM (active) | 0.0419 µM (active) | 0.109 µM (active) | 0.225 µM (active) | 0.61 µM (active) | 0.115 µM (active) |
| Cc1nn(C(=O)c2ccc(Cl)cc2)c2c1C(c1ccc(Cl)cc1)SC(=N)N2 (stereo unspecified) |  | > 10 µM (inactive) | > 10 µM (inactive) | > 10 µM (inactive) | > 10 µM (inactive) | > 10 µM (inactive) | > 10 µM (inactive) | > 10 µM (inactive) | > 10 µM (inactive) | > 10 µM (inactive) | > 10 µM (inactive) | > 10 µM (inactive) | > 10 µM (inactive) | > 10 µM (inactive) | > 10 µM (inactive) | > 10 µM (inactive) | > 10 µM (inactive) | > 10 µM (inactive) | > 10 µM (inactive) | > 10 µM (inactive) |
| O=C(c1ccc(Cl)cc1)c1ccc(OCCCOc2ccc(C(=O)c3ccc(Cl)cc3)cc2Cl)c(Cl)c1 | > 100 µM (inactive) | > 100 µM (inactive) | > 100 µM (inactive) | > 100 µM (inactive) | > 100 µM (inactive) | > 100 µM (inactive) | > 100 µM (inactive) |  | > 100 µM (inactive) | > 100 µM (inactive) | > 100 µM (inactive) | > 100 µM (inactive) | > 100 µM (inactive) | > 100 µM (inactive) | > 100 µM (inactive) | > 100 µM (inactive) | > 100 µM (inactive) | > 100 µM (inactive) | > 100 µM (inactive) |  |
| Cn1c(=O)c2nc(SCc3ccccn3)[nH]c2n(C)c1=S |  | 19.5 µM (inactive) | > 100 µM (inactive) | 46.7 µM (inactive) | > 100 µM (inactive) | > 100 µM (inactive) | 34.1 µM (inactive) | > 100 µM (inactive) | > 100 µM (inactive) | > 100 µM (inactive) | > 100 µM (inactive) | 56 µM (inactive) | > 100 µM (inactive) | 34 µM (inactive) | > 100 µM (inactive) | > 100 µM (inactive) | > 100 µM (inactive) | > 100 µM (inactive) | 74 µM (inactive) | 76.6 µM (inactive) |
| C[n+]1cccc(/C=C/c2ccc3cccc(O)c3n2)c1 |  | > 100 µM (inactive) | > 100 µM (inactive) | 49.2 µM (inactive) | > 100 µM (inactive) | > 100 µM (inactive) | 88.1 µM (inactive) | 26.9 µM (inactive) | 39.9 µM (inactive) | > 100 µM (inactive) | > 100 µM (inactive) | 42 µM (inactive) | > 100 µM (inactive) | > 100 µM (inactive) | 28.1 µM (inactive) | > 100 µM (inactive) | > 100 µM (inactive) | > 100 µM (inactive) | > 100 µM (inactive) | > 100 µM (inactive) |
| Cc1ccc(S(=O)(=O)NC(=O)NC23CC4CC(CC(F)(C4)C2)C3)cc1 | > 100 µM (inactive) | 73.6 µM (inactive) |  | > 100 µM (inactive) | > 100 µM (inactive) | > 100 µM (inactive) | > 100 µM (inactive) |  | > 100 µM (inactive) |  | > 100 µM (inactive) | > 100 µM (inactive) | > 100 µM (inactive) | > 100 µM (inactive) | > 100 µM (inactive) | > 100 µM (inactive) | > 100 µM (inactive) | > 100 µM (inactive) | > 100 µM (inactive) |  |
| COc1cc(CC2c3cc(OC)c(OC)cc3CCN2C)ccc1O (stereo unspecified) | > 100 µM (inactive) | > 100 µM (inactive) | > 100 µM (inactive) | > 100 µM (inactive) | > 100 µM (inactive) | > 100 µM (inactive) | > 100 µM (inactive) | > 100 µM (inactive) | > 100 µM (inactive) | > 100 µM (inactive) | > 100 µM (inactive) | > 100 µM (inactive) | > 100 µM (inactive) |  |  |  | > 100 µM (inactive) | > 100 µM (inactive) | > 100 µM (inactive) |  |
| COc1ccc(NC(=O)CC(=O)N2N=C(N(c3ccccc3)c3ccccc3)CC2c2ccccc2)cc1 (stereo unspecified) |  | > 100 µM (inactive) | > 100 µM (inactive) | > 100 µM (inactive) | > 100 µM (inactive) | > 100 µM (inactive) | > 100 µM (inactive) | > 100 µM (inactive) | > 100 µM (inactive) | > 100 µM (inactive) | > 100 µM (inactive) | > 100 µM (inactive) | > 100 µM (inactive) | > 100 µM (inactive) | > 100 µM (inactive) | > 100 µM (inactive) | > 100 µM (inactive) | > 100 µM (inactive) | > 100 µM (inactive) | > 100 µM (inactive) |
